From patent US20230129721A1, “STABILIZER FOR RADIOPHARMACEUTICALS AND RADIOPHARMACEUTICAL COMPOSITION COMPRISING THE SAME” (THE ASAN FOUNDATION, priority 2020, published 2023)

Assay: Stability (labeling / radiochemical purity by HPLC) of ^99mTc-labeled radiopharmaceutical-containing preparation under acidic, neutral and basic conditions
Assay type: physicochemical
Protocol: 2 mL of Tc-99m was added dropwise to a lyophilization vial containing 0.1 mg of GP-104, 15 μg of SnCl2, and 20 μg (165 nmol) of cysteine, and left at room temperature for 10 minutes, and the reaction was terminated by adjusting the pH of the mixture to pH 7 using a NaOH solution. The labeling purity was determined using HPLC (analysis conditions: Luna C18 250×4.6 mm, phosphate buffer:acetonitrile (100:0, 0-5 minutes; 80:20, 5-10 minutes; 80:20, 17 minutes; 100:0, 17.1 minutes; 100:0. 20 minutes), 1.0 mL/min, UV=280 nm).
HCl and NaOH were further added dropwise to the solution of Example 7 to adjust the final pH of the solution, followed by stability evaluation under the acidic (pH 5.5) and basic (pH 8.5) conditions. Then, the labeling purity was determined in the same manner as in Example 7 using HPLC.
2 mL of Tc-99m was added dropwise to a lyophilization vial containing 0.1 mg of radiopharmaceutical GP-104, 15 μg of SnCl2, 10 μg (82.5 nmol) of cysteine, and 22 μg (82.5 nmol) of VB1, and left at room temperature for 10 minutes, and the reaction was terminated by adjusting the pH of the mixture to pH 7 using a NaOH solution. Then, the labeling purity was determined in the same manner as in Example 7 using HPLC.
HCl and NaOH were further added dropwise to the solution of Example 9 to adjust the final pH of the solution, followed by stability evaluation under the acidic (pH 5.5) and basic (pH 8.5) conditions. Then, the labeling purity was determined in the same manner as in Example 7 using HPLC.
2 mL of Tc-99m was added dropwise to a lyophilization vial containing 0.1 mg of GP-104, 15 μg of SnCl2, 10 μg (82.5 nmol) of cysteine, and 17 μg (82.5 nmol) of VB6, and left at room temperature for 10 minutes, and the reaction was terminated by adjusting the pH of the mixture to pH 7 using a NaOH solution. Then, the labeling purity was determined in the same manner as in Example 7 using HPLC.
HCl and NaOH were further added dropwise to the solution of Example 11 to adjust the final pH of the solution, followed by stability evaluation under the acidic (pH 5.5) and basic (pH 8.5) conditions. Then, the labeling purity was determined in the same manner as in Example 7 using HPLC.
2 mL of Tc-99m was added dropwise to a lyophilization vial containing 0.1 mg of GP-105, 15 μg of SnCl2, and 20 μg (165 nmol) of cysteine, and left at room temperature for 10 minutes, and the reaction was terminated by adjusting the pH of the mixture to pH 7 using a NaOH solution. Then, the labeling purity was determined in the same manner as in Example 7 using HPLC.
HCl and NaOH were further added dropwise to the solution of Example 13 to adjust the final pH of the solution, followed by stability evaluation under the acidic (pH 5.5) and basic (pH 8.5) conditions. Then, the labeling purity was determined in the same manner as in Example 7 using HPLC.
2 mL of Tc-99m was added dropwise to a lyophilization vial containing 0.1 mg of GP-105, 15 μg of SnCl2, 10 μg (82.5 nmol) of cysteine, and 22 μg (82.5 nmol) of VB1, and left at room temperature for 10 minutes, and the reaction was terminated by adjusting the pH of the mixture to pH 7 using a NaOH solution. Then, the labeling purity was determined in the same manner as in Example 7 using HPLC.
HCl and NaOH were further added dropwise to the solution of Example 15 to adjust the final pH of the solution, followed by stability evaluation under the acidic (pH 5.5) and basic (pH 8.5) conditions. Then, the labeling purity was determined in the same manner as in Example 7 using HPLC.
2 mL of Tc-99m was added dropwise to a lyophilization vial containing 0.1 mg of GP-105, 15 μg of SnCl2, 10 μg (82.5 nmol) of cysteine, and 17 μg (82.5 nmol) of VB6, and left at room temperature for 10 minutes, and the reaction was terminated by adjusting the pH of the mixture to pH 7 using a NaOH solution. Then, the labeling purity was determined in the same manner as in Example 7 using HPLC. […]

[1] = 10 μg (82.5 nmol) cysteine and 17 μg (82.5 nmol) VB6, pH 5.5, 0 hr
[2] = 10 μg (82.5 nmol) cysteine and 17 μg (82.5 nmol) VB6, pH 5.5, 2 hr
[3] = 10 μg (82.5 nmol) cysteine and 17 μg (82.5 nmol) VB6, pH 5.5, 4 hr
[4] = 10 μg (82.5 nmol) cysteine and 17 μg (82.5 nmol) VB6, pH 7, 0 hr
[5] = 10 μg (82.5 nmol) cysteine and 17 μg (82.5 nmol) VB6, pH 7, 2 hr
[6] = 10 μg (82.5 nmol) cysteine and 17 μg (82.5 nmol) VB6, pH 7, 4 hr
[7] = 10 μg (82.5 nmol) cysteine and 17 μg (82.5 nmol) VB6, pH 8.5, 0 hr
[8] = 10 μg (82.5 nmol) cysteine and 17 μg (82.5 nmol) VB6, pH 8.5, 2 hr
[9] = 10 μg (82.5 nmol) cysteine and 17 μg (82.5 nmol) VB6, pH 8.5, 4 hr
[10] = 10 μg (82.5 nmol) cysteine and 22 μg (82.5 nmol) VB1, pH 5.5, 0 hr
[11] = 10 μg (82.5 nmol) cysteine and 22 μg (82.5 nmol) VB1, pH 5.5, 2 hr
[12] = 10 μg (82.5 nmol) cysteine and 22 μg (82.5 nmol) VB1, pH 5.5, 4 hr
[13] = 10 μg (82.5 nmol) cysteine and 22 μg (82.5 nmol) VB1, pH 7, 0 hr
[14] = 10 μg (82.5 nmol) cysteine and 22 μg (82.5 nmol) VB1, pH 7, 2 hr
[15] = 10 μg (82.5 nmol) cysteine and 22 μg (82.5 nmol) VB1, pH 7, 4 hr
[16] = 10 μg (82.5 nmol) cysteine and 22 μg (82.5 nmol) VB1, pH 8.5, 0 hr
[17] = 10 μg (82.5 nmol) cysteine and 22 μg (82.5 nmol) VB1, pH 8.5, 2 hr
[18] = 10 μg (82.5 nmol) cysteine and 22 μg (82.5 nmol) VB1, pH 8.5, 4 hr
[19] = 20 μg (165 nmol) cysteine, pH 5.5, 0 hr
[20] = 20 μg (165 nmol) cysteine, pH 5.5, 2 hr
[21] = 20 μg (165 nmol) cysteine, pH 5.5, 4 hr
[22] = 20 μg (165 nmol) cysteine, pH 7, 0 hr
[23] = 20 μg (165 nmol) cysteine, pH 7, 2 hr
[24] = 20 μg (165 nmol) cysteine, pH 7, 4 hr
[25] = 20 μg (165 nmol) cysteine, pH 8.5, 0 hr
[26] = 20 μg (165 nmol) cysteine, pH 8.5, 2 hr
[27] = 20 μg (165 nmol) cysteine, pH 8.5, 4 hr

In the case of `O=C(O)C[C@H](NC(=O)[C@@H]1CCCN(C(=O)CCC2CCNCC2)C1)c1cncc(OCCNC(=O)CN(CC(=O)O)CC(=O)O)c1` (99mTc complex, metal not drawn) [GP-105, 2,2′-((2-((2-((5-((S)-2-carboxy-1-((R)-1-(3-(piperidin-4-yl)propanoyl)piperidine-3-carboxamido)ethyl)pyridin-3-yl)oxy)ethyl)amino)-2-oxoethyl)azanediyl)diacetic acid], the “radiochemical purity (labeling purity)” value [1] is reported as 100%, the “radiochemical purity (labeling purity)” value [2] is reported as 97.24% and the “radiochemical purity (labeling purity)” value [3] is reported as 95.61%. The “radiochemical purity (labeling purity)” value [4] was 100%, the “radiochemical purity (labeling purity)” value [5] was 98.56% and the “radiochemical purity (labeling purity)” value [6] was 98.2%. The “radiochemical purity (labeling purity)” value [7] was 100%, the “radiochemical purity (labeling purity)” value [8] was 92.21% and the “radiochemical purity (labeling purity)” value [9] was 89.62%. For the same compound, the “radiochemical purity (labeling purity)” value [10] was 100%, the “radiochemical purity (labeling purity)” value [11] was 100% and the “radiochemical purity (labeling purity)” value [12] was 98.63%. For the same compound, the “radiochemical purity (labeling purity)” value [13] was 100%, the “radiochemical purity (labeling purity)” value [14] was 100% and the “radiochemical purity (labeling purity)” value [15] was 94.88%. For the same compound, the “radiochemical purity (labeling purity)” value [16] was 100%, the “radiochemical purity (labeling purity)” value [17] was 94.13% and the “radiochemical purity (labeling purity)” value [18] was 90.17%. For the same compound, the “radiochemical purity (labeling purity)” value [19] was 100%, the “radiochemical purity (labeling purity)” value [20] was 85.49% and the “radiochemical purity (labeling purity)” value [21] was 82.11%. For the same compound, the “radiochemical purity (labeling purity)” value [22] was 100%, the “radiochemical purity (labeling purity)” value [23] was 94.88% and the “radiochemical purity (labeling purity)” value [24] was 85.55%. The “radiochemical purity (labeling purity)” value [25] was 100%, the “radiochemical purity (labeling purity)” value [26] was 50.64% and the “radiochemical purity (labeling purity)” value [27] was 23.98%.

For `O=C(O)C[C@H](NC(=O)[C@@H]1CCCN(C(=O)CCC2CCNCC2)C1)c1cncc(OCCNC(=O)CN(CCN(CCN(CC(=O)O)CC(=O)O)CC(=O)O)CC(=O)O)c1` [GP-104, (S)-3-(5-(2-(2-DTPA acetamido)ethoxy)pyridin-3-yl)-3-((R)-1-(3-(piperidin-4-yl)propanoyl)piperidine-3-carboxamido)propanoic acid], the “radiochemical purity (labeling purity)” value [1] was 97.24%, the “radiochemical purity (labeling purity)” value [2] was 90.29% and the “radiochemical purity (labeling purity)” value [3] was 90.65%. The “radiochemical purity (labeling purity)” value [4] was 97.24%, the “radiochemical purity (labeling purity)” value [5] was 95.61% and the “radiochemical purity (labeling purity)” value [6] was 96.25%. The “radiochemical purity (labeling purity)” value [7] was 97.24%, the “radiochemical purity (labeling purity)” value [8] was 95.61% and the “radiochemical purity (labeling purity)” value [9] was 91.19%. For the same compound, the “radiochemical purity (labeling purity)” value [10] was 100%, the “radiochemical purity (labeling purity)” value [11] was 92.72% and the “radiochemical purity (labeling purity)” value [12] was 91.20%. The “radiochemical purity (labeling purity)” value [13] was 100%, the “radiochemical purity (labeling purity)” value [14] was 98.63% and the “radiochemical purity (labeling purity)” value [15] was 98.18%. For the same compound, the “radiochemical purity (labeling purity)” value [16] was 100%, the “radiochemical purity (labeling purity)” value [17] was 83.08% and the “radiochemical purity (labeling purity)” value [18] was 80.97%. For the same compound, the “radiochemical purity (labeling purity)” value [19] was 95.26%, the “radiochemical purity (labeling purity)” value [20] was 91.45% and the “radiochemical purity (labeling purity)” value [21] was 89.28%. The “radiochemical purity (labeling purity)” value [22] was 95.26%, the “radiochemical purity (labeling purity)” value [23] was 91.19% and the “radiochemical purity (labeling purity)” value [24] was 91.61%. For the same compound, the “radiochemical purity (labeling purity)” value [25] was 95.26%, the “radiochemical purity (labeling purity)” value [26] was 79.83% and the “radiochemical purity (labeling purity)” value [27] was 51.77%.
